“And” between values parts separate entries of the source, which are not always exact repeats. Equal values may be shown once.
Assays:
[1] = system: Canis familiaris; assay: Spermidine Distribution in liver was determined after DESPM dosing of 6.0 mg/kg/day for 4.5 days in dog(cu dose-52.4) and sacrificed at 10 days PLD(cu dose-27 mg/kg); format: ADME, organism-based, Canis lupus familiaris; conditions: in vivo, 240 h
[2] = system: Canis familiaris; assay: Spermine Distribution in kidney was determined after DESPM dosing of 1.87 mg/kg/day for 28 days in dog(cu dose-52.4) and sacrificed at 10 days PLD(cu dose-52.4 mg/kg); format: ADME, organism-based, Canis lupus familiaris; conditions: in vivo, 240 h
[3] = system: Canis familiaris; assay: Spermidine Distribution in liver was determined after DESPM dosing of 4 mg/kg/day for 13 days in dog(cu dose-52.4) and sacrificed at 10 days PLD(cu dose-52 mg/kg); format: ADME, organism-based, Canis lupus familiaris; conditions: in vivo, 240 h
[4] = system: Canis familiaris; assay: putrescine Distribution in liver was determined after DESPM dosing of 1.87 mg/kg/day for 28 days in dog(cu dose-52.4) and sacrificed at 75 days PLD(cu dose-52.4 mg/kg); format: ADME, organism-based, Canis lupus familiaris; conditions: in vivo, 1800 h
[5] = system: Canis familiaris; assay: Spermidine Distribution in liver was determined after DESPM dosing of 8.0 mg/kg/day for 4.5 days in dog(cu dose-52.4) and sacrificed at 10 days PLD(cu dose-36 mg/kg); format: ADME, organism-based, Canis lupus familiaris; conditions: in vivo, 240 h
[6] = system: Canis familiaris; assay: Spermine Distribution in kidney was determined after DESPM dosing of 8.0 mg/kg/day for 4.5 days in dog(cu dose-52.4) and sacrificed at 10 days PLD(cu dose-36 mg/kg); format: ADME, organism-based, Canis lupus familiaris; conditions: in vivo, 240 h
[7] = system: Canis familiaris; assay: Spermine Distribution in kidney was determined after DESPM dosing of 6.0 mg/kg/day for 4.5 days in dog(cu dose-52.4) and sacrificed at 10 days PLD(cu dose-27 mg/kg); format: ADME, organism-based, Canis lupus familiaris; conditions: in vivo, 240 h
[8] = system: Canis familiaris; assay: MESPM/MEHSPH Distribution in liver was determined after DESPM dosing of 6.0 mg/kg/day for 4.5 days in dog(cu dose-52.4) and sacrificed at 10 days PLD(cu dose-27 mg/kg); format: ADME, organism-based, Canis lupus familiaris; conditions: in vivo, 240 h
[9] = system: Canis familiaris; assay: Spermidine Distribution in kidney was determined after DESPM dosing of 4 mg/kg/day for 13 days in dog(cu dose-52.4) and sacrificed at 75 days PLD(cu dose-52 mg/kg); format: ADME, organism-based, Canis lupus familiaris; conditions: in vivo, 1800 h
[10] = system: Canis familiaris; assay: putrescine Distribution in kidney was determined after DESPM dosing of 6.0 mg/kg/day for 4.5 days in dog and sacrificed at 75 days PLD(cu dose-27 mg/kg); format: ADME, organism-based, Canis lupus familiaris; conditions: in vivo, 1800 h
[11] = system: Rattus norvegicus; assay: Percent reduction was determined by using the ratio of mean of treated animal to that of control animal at a dose of 47 mg/kg; format: functional
[12] = system: Canis familiaris; assay: MESPM/MEHSPH Distribution in liver was determined after DESPM dosing of 6.0 mg/kg/day for 4.5 days in dog(cu dose-52.4) and sacrificed at 75 days PLD(cu dose-27 mg/kg); format: ADME, organism-based, Canis lupus familiaris; conditions: in vivo, 1800 h
[13] = system: Canis familiaris; assay: MESPM/MEHSPH Distribution in liver was determined after DESPM dosing of 4 mg/kg/day for 13 days in dog(cu dose-52.4) and sacrificed at 10 days PLD(cu dose-52 mg/kg); format: ADME, organism-based, Canis lupus familiaris; conditions: in vivo, 240 h
[14] = system: Canis familiaris; assay: Spermidine Distribution in kidney was determined after DESPM dosing of 8.0 mg/kg/day for 4.5 days in dog(cu dose-52.4) and sacrificed at 10 days PLD(cu dose-36 mg/kg); format: ADME, organism-based, Canis lupus familiaris; conditions: in vivo, 240 h
[15] = system: Rattus norvegicus; assay: Stool output of rat over the 6-h collection period when a dose of 4.7 mg/kg (11.6 administered; format: functional
[16] = system: Rattus norvegicus; assay: Weight loss of rat over the 6-h experimental period when a dose of 9.4 mg/kg (23.3 administered; format: functional
[17] = system: Canis familiaris; assay: Spermine Distribution in liver was determined after DESPM dosing of 8.0 mg/kg/day for 4.5 days in dog(cu dose-52.4) and sacrificed at 75 days PLD(cu dose-36 mg/kg); format: ADME, organism-based, Canis lupus familiaris; conditions: in vivo, 1800 h
[18] = system: Canis familiaris; assay: putrescine Distribution in liver was determined after DESPM dosing of 4 mg/kg/day for 13 days in dog(cu dose-52.4) and sacrificed at 10 days PLD(cu dose-52 mg/kg); format: ADME, organism-based, Canis lupus familiaris; conditions: in vivo, 240 h
[19] = system: Canis familiaris; assay: putrescine Distribution in kidney was determined after DESPM dosing of 1.87 mg/kg/day for 28 days in dog and sacrificed at 75 days PLD(cu dose-52.4 mg/kg); format: ADME, organism-based, Canis lupus familiaris; conditions: in vivo, 1800 h
[20] = system: Canis familiaris; assay: Spermine Distribution in kidney was determined after DESPM dosing of 6.0 mg/kg/day for 4.5 days in dog(cu dose-52.4) and sacrificed at 75 days PLD(cu dose-27 mg/kg); format: ADME, organism-based, Canis lupus familiaris; conditions: in vivo, 1800 h
[21] = system: Canis familiaris; assay: Distribution in liver was determined after DEHSPM dosing of 2.0 mg/kg/day for 29 days in dog(cu dose-52.4) and sacrificed at 10 days PLD(cu dose-22 mg/kg); format: ADME, organism-based, Canis lupus familiaris; conditions: in vivo, 240 h
[22] = system: Canis familiaris; assay: Distribution in liver was determined after DESPM dosing of 1.87 mg/kg/day for 28 days in dog(cu dose-52.4) and sacrificed at 75 days PLD(cu dose-52.4 mg/kg); format: ADME, organism-based, Canis lupus familiaris; conditions: in vivo, 1800 h
[23] = system: Canis familiaris; assay: Distribution in kidney was determined after DEHSPM dosing of 2.0 mg/kg/day for 29 days in dog(cu dose-52.4) and sacrificed at 10 days PLD(cu dose-22 mg/kg); format: ADME, organism-based, Canis lupus familiaris; conditions: in vivo, 240 h
[24] = system: Canis familiaris; assay: Distribution in liver was determined after DESPM dosing of 8.0 mg/kg/day for 4.5 days in dog(cu dose-52.4) and sacrificed at 75 days PLD(cu dose-36 mg/kg); format: ADME, organism-based, Canis lupus familiaris; conditions: in vivo, 1800 h
[25] = system: Canis familiaris; assay: Distribution in liver was determined after DESPM dosing of 6.0 mg/kg/day for 4.5 days in dog(cu dose-52.4) and sacrificed at 75 days PLD(cu dose-27 mg/kg); format: ADME, organism-based, Canis lupus familiaris; conditions: in vivo, 1800 h
[26] = system: Canis familiaris; assay: Distribution in liver was determined after DESPM dosing of 4 mg/kg/day for 13 days in dog(cu dose-52.4) and sacrificed at 75 days PLD(cu dose-52 mg/kg); format: ADME, organism-based, Canis lupus familiaris; conditions: in vivo, 1800 h
[27] = system: Canis familiaris; assay: Distribution in kidney was determined after DESPM dosing of 1.87 mg/kg/day for 28 days in dog(cu dose-52.4) and sacrificed at 75 days PLD(cu dose-52.4 mg/kg); format: ADME, organism-based, Canis lupus familiaris; conditions: in vivo, 1800 h
[28] = system: Canis familiaris; assay: Spermidine Distribution in kidney was determined after DEHSPM dosing of 2.0 mg/kg/day […] in dog(cu dose-52.4) and sacrificed at 10 days PLD(cu dose-22 mg/kg); format: ADME, organism-based, Canis lupus familiaris; conditions: in vivo, 240 h
[29] = system: Canis familiaris; assay: MESPM/MEHSPH Distribution in kidney was determined after DEHSPM dosing of 2.0 mg/kg/day for 29 days in dog(cu dose-52.4) and sacrificed at 10 days PLD(cu dose-22 mg/kg); format: ADME, organism-based, Canis lupus familiaris; conditions: in vivo, 240 h
[30] = system: Canis familiaris; assay: HSPM Distribution in kidney was determined after DEHSPM dosing of 2.0 mg/kg/day for 29 days in dog(cu dose-52.4) and sacrificed at 10 days PLD(cu dose-22 mg/kg); format: ADME, organism-based, Canis lupus familiaris; conditions: in vivo, 240 h
[31] = system: Canis familiaris; assay: Distribution in kidney was determined after DESPM dosing of 8.0 mg/kg/day for 4.5 days in dog(cu dose-52.4) and sacrificed at 75 days PLD(cu dose-36 mg/kg); format: ADME, organism-based, Canis lupus familiaris; conditions: in vivo, 1800 h
[32] = system: Canis familiaris; assay: putrescine Distribution in liver was determined after DEHSPM dosing of 2.0 mg/kg/day for 29 days in dog(cu dose-52.4) and sacrificed at 10 days PLD(cu dose-58 mg/kg); format: ADME, organism-based, Canis lupus familiaris; conditions: in vivo, 240 h

CCNCCCNCCCCNCCCNCC [BIS(ETHYL)SPERMINE]
Wet weight of tissue [1]: 181 nM/g
Wet weight of tissue [2]: 998 nM/g
Wet weight of tissue [3]: 176 nM/g
Wet weight of tissue [4]: 28 nM/g
Wet weight of tissue [5]: 187 nM/g
Wet weight of tissue [6]: 784 nM/g
Wet weight of tissue [7]: 654 nM/g
Wet weight of tissue [8]: 23 nM/g
Wet weight of tissue [9]: 117 nM/g
Wet weight of tissue [10]: 8 nM/g
Reduction [11]: 75% and 92%
Wet weight of tissue [12]: 1 nM/g
Wet weight of tissue [13]: 34 nM/g
Wet weight of tissue [14]: 66 nM/g
Stool output [15]: <3 g (350g of rat weight)-1
Weight loss [16]: <5.3 g
Wet weight of tissue [17]: 1058 nM/g
Wet weight of tissue [18]: 82 nM/g
Wet weight of tissue [19]: 16 nM/g
Wet weight of tissue [20]: 584 nM/g

CCNCCCCNCCCCNCCCCNCC [DIETHYLHOMOSPERMINE]
Wet weight of tissue [21]: 0 nM/g
Wet weight of tissue [22]: 0 nM/g
Wet weight of tissue [23]: 0 nM/g
Wet weight of tissue [24]: 0 nM/g
Wet weight of tissue [25]: 0 nM/g
Wet weight of tissue [26]: 0 nM/g
Wet weight of tissue [27]: 0 nM/g
Wet weight of tissue [28]: 68 nM/g
Wet weight of tissue [29]: 3 nM/g
Wet weight of tissue [30]: 43 nM/g
Wet weight of tissue [31]: 0 nM/g
Wet weight of tissue [32]: 19 nM/g

Reference: ChEMBL document CHEMBL1134446, “Polyamine analogue antidiarrheals: a structure-activity study” (J Med Chem, 2001)
